# Measurements reported in paper PMC2935307 (Biochemical pharmacology, 2010).
# Where “and” joins values, the source holds several entries; their conditions need not be identical. Identical values can stand only once. Like-named read-outs stand apart in the source and are kept apart here.
# Experiments:
# [1] = biological target: epibatidine binding sites (Mus musculus, UniProt O70174+Q9ERK7)
# α4β2-nAChR = conditions: read-out: IC50 for desensitization by nicotine; transfected cells; cited from earlier work
# α4β2*-nAChR [2] = biological target: T1, α4β2*-nAChR (Mus musculus, UniProt O70174+Q9ERK7); conditions: cited from earlier work
# T1 sequence (Q9ERK7 26-501): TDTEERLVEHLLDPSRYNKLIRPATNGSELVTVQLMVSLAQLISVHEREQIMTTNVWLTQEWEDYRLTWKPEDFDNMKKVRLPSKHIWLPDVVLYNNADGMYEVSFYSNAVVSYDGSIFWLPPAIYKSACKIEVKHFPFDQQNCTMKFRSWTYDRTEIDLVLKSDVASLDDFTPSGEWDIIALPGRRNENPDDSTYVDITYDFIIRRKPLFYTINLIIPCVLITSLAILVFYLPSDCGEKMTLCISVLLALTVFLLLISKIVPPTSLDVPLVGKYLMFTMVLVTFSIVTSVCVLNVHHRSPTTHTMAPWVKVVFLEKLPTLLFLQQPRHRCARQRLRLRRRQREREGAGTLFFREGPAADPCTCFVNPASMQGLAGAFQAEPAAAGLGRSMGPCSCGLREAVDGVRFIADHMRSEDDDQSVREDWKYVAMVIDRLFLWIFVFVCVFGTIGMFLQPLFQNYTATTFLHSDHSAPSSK
# T1 sequence (O70174 31-629): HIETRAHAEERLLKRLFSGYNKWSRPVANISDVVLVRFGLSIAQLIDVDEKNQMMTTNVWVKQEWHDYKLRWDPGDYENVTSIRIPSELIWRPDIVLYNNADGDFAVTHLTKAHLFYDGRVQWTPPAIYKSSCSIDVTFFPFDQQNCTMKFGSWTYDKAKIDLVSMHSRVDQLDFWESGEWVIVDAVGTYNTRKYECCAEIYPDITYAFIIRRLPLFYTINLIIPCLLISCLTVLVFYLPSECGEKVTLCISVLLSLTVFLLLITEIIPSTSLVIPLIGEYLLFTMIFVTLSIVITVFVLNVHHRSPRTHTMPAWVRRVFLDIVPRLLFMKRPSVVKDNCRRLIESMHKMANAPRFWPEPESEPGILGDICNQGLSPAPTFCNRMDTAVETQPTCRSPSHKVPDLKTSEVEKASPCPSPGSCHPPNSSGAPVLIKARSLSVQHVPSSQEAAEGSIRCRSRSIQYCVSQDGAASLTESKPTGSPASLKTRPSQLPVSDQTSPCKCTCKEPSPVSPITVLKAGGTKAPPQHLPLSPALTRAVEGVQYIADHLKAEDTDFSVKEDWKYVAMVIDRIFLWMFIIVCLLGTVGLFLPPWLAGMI
# α4β2*-nAChR [3] = biological target: T1, α4β2*-nAChR; conditions: total efflux normalized to baseline
# [4] = system: α4β2*-nAChR binding sites; conditions: mice treated chronically with nicotine; cited from earlier work
# [5] = biological target: high affinity epibatidine binding sites (Mus musculus, UniProt O70174+Q9ERK7); experiment: biochemical
# Chain of high affinity epibatidine binding sites (Q9ERK7 26-501): as the sequence (Q9ERK7 26-501) above
# Chain of high affinity epibatidine binding sites (O70174 31-629): as the sequence (O70174 31-629) above
# α4β2*-nAChR [6] = biological target: T1, α4β2*-nAChR; assay type: biochemical
# α4β2*-nAChR [7] = biological target: T1, α4β2*-nAChR; experiment: biochemical
# [8] = cortex, nicotine infusion 0.5 mg/kg/hr
# [9] = cortex, nicotine infusion 4.0 mg/kg/hr
# [10] = thalamus, nicotine infusion 0.5 mg/kg/hr
# [11] = thalamus, nicotine infusion 4.0 mg/kg/hr
# [12] = HS EC50 for 86Rb+ efflux from Marks et al., 1999, errors by Taylor's expansion
# [13] = LS EC50 for 86Rb+ efflux from Marks et al., 1999, errors by Taylor's expansion
# [14] = IC50 for desensitization of the LS component
# Chain of epibatidine binding sites (Q9ERK7 26-501): as the sequence (Q9ERK7 26-501) above
# Chain of epibatidine binding sites (O70174 31-629): as the sequence (O70174 31-629) above
structure (smiles),measurement,setting,value
CN1CCC[C@H]1c1cccnc1 [nicotine],[125I]-Epibatidine Bound,[1]; [8],127.9±1.1 fmol/mg protein
same,[125I]-Epibatidine Bound,[1]; [9],139.0±1.2 fmol/mg protein
same,[125I]-Epibatidine Bound,[1]; [10],240.7±2.5 fmol/mg protein
same,[125I]-Epibatidine Bound,[1]; [11],256.8±2.9 fmol/mg protein
same,Difference in EC50 values for stimulation of HS and LS responses,α4β2*-nAChR [2],94 fold
same,High Sensitivity 86Rb+ Efflux (maximal),α4β2*-nAChR [3]; [8],2.06±0.19
same,Low Sensitivity 86Rb+ Efflux (maximal),α4β2*-nAChR [3]; [8],6.80±0.50
same,High Sensitivity 86Rb+ Efflux (maximal),α4β2*-nAChR [3]; [9],1.88±0.11
same,Low Sensitivity 86Rb+ Efflux (maximal),α4β2*-nAChR [3]; [9],5.63±0.80
same,High Sensitivity 86Rb+ Efflux (maximal),α4β2*-nAChR [3]; [10],10.19±0.99
same,Low Sensitivity 86Rb+ Efflux (maximal),α4β2*-nAChR [3]; [10],13.84±2.48
same,High Sensitivity 86Rb+ Efflux (maximal),α4β2*-nAChR [3]; [11],6.76±1.19
same,Low Sensitivity 86Rb+ Efflux (maximal),α4β2*-nAChR [3]; [11],12.52±1.96
same,average dose for half-maximal upregulation of α4β2*-nAChR binding sites,[4],0.44 mg/kg/h
"CNC(=O)OCC[N+](C)(C)C.[Cl-] [methylcarbachol, methycarbachol chloride]",Ki,"[5]; read-out: Ki, high affinity epibatidine binding",7.9 ± 1.7 nM
same,% des,α4β2*-nAChR [6],50.9 ± 8.8% and 56.0 ± 8.1% and 94.3 ± 7.3% and 88.7 ± 6.4%
same,Difference in EC50 values for stimulation of HS and LS responses,α4β2*-nAChR [2]; mouse brain synaptosomes,38 fold
same,Ratio: HS EC50/Desensitization IC50,α4β2*-nAChR [7]; [12],380
same,Ratio: LS EC50/Desensitization IC50,α4β2*-nAChR [7]; [13],"56,000"
same,Ratio KI High Affinity Binding/Desensitization IC50,α4β2*-nAChR [7]; errors by Taylor's expansion,0.156±0.042
"Clc1ccc(C2CC3CCC2N3)cn1 (racemic) [epibatidine, (±)-epibatidine]",Ki,[5],0.024 ± 0.008 nM
same,% des,α4β2*-nAChR [6],69.9 ± 6.1% and 64.5 ± 11.7% and 96.7 ± 8.9% and 93.8 ± 7.4%
same,Difference in EC50 values for stimulation of HS and LS responses,α4β2*-nAChR [2]; mouse brain synaptosomes,39 fold
same,Ratio KI High Affinity Binding/Desensitization IC50,α4β2*-nAChR [7],0.065±0.022
same,Ratio: HS EC50/Desensitization IC50,α4β2*-nAChR [7],154±44
same,Ratio: LS EC50/Desensitization IC50,α4β2*-nAChR [7],6000 and 6000±870
same,IC50,α4β2*-nAChR [7]; IC50 Desensitization,0.37 ± 0.02 nM
same,IC50,α4β2*-nAChR [7]; IC50 for desensitization of the HS component,0.33 ± 0.09 nM
same,IC50,α4β2*-nAChR [7]; [14],0.38 ± 0.09 nM
O=c1cccc2n1C[C@@H]1CNC[C@H]2C1 [cytisine],Ki,[5],0.32 ± 0.02 nM
same,Difference in EC50 values for stimulation of HS and LS responses,α4β2*-nAChR [2],"11,500 fold"
same,Ratio KI High Affinity Binding/Desensitization IC50,α4β2*-nAChR [7],0.119±0.011
same,Ratio: HS EC50/Desensitization IC50,α4β2*-nAChR [7]; [12],4.8
same,IC50,α4β2*-nAChR [7]; IC50 Desensitization,2.7 ± 0.2 nM
same,IC50,α4β2*-nAChR [7]; [14],5.4 ± 1.4 nM
same,Ratio: LS EC50/Desensitization IC50,α4β2*-nAChR [7]; [13],56000±23000
